Experiment [1] addresses T1, 20S Human Erythrocyte Proteasome (HEP) (Homo sapiens, UniProt P20618+P28074).
T1 construct: 20S Human Erythrocyte Proteasome (HEP), purchased from Immatics Biotechnologies Inc; purchased Immatics Biotechnologies Inc., Tübingen, Germany; host or cells: human erythrocytes (natural source)
Put plainly: Chymotrypsin-like activity of 20S Human Erythrocyte Proteasome (HEP), IC50 determination. Format: biochemical. Particulars: assay of Example C, inhibition of HEP. The method in brief:
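20S proteasome at 0.2 μg/mL (about 0.6 nM catalytic sites) in 20 mM Tris with 0.04% SDS, preincubated 15 min at 37° C with inhibitor before Suc-LLVY-AMC (100 μM final). AMC fluorescence read in the linear range; triplicates, IC50 from concentration series.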

For experiment [2], the target named is T2, proteasome in Molt-4 cells (human leukemia) (Homo sapiens, UniProt P20618+P28074).
T2 sequence (P28074 60-263): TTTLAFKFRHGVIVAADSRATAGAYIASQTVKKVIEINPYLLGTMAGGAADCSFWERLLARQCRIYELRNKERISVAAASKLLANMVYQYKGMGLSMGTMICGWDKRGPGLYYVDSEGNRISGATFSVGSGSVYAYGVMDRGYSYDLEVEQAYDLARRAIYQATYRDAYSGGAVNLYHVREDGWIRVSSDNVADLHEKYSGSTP
T2 sequence (P20618 29-241): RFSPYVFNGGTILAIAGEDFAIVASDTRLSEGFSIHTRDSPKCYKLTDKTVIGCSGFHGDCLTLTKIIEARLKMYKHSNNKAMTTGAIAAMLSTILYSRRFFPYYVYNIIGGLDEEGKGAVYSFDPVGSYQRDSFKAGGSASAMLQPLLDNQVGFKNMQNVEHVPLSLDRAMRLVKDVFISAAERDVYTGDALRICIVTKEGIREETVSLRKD
In kind it is cell-based. Particulars: assay of Example E, inhibition of MOLT4; read-out: MOLT4 (EC50). The method in brief:
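Intact Molt-4 cells (6×10^6 cells/mL) in HEPES-buffered saline were preincubated with inhibitor 15 min at 37 °C, then given cell-permeable MeOSuc-FLF-AFC at 25 μM final.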

The IC50 is the midpoint of a concentration-inhibition curve. The low end stands for greater potency in that assay, the high end for weaker potency in that assay. For orientation: EC50 means the midpoint of the concentration-response curve. In turn, `CC(C)C[C@H](NC(=O)[C@H](CCCNC(=N)N[N+](=O)[O-])NC(=O)CCC(=O)c1ccc(S(C)(=O)=O)cc1)B(O)O` [E.2.47, Boronic acid, [(1R)-1-[[(2S)-5-[[imino(nitroamino)methyl]amino]-2-[[4-(4-methanesulfonylphenyl)-4-oxobutanoyl]amino]-1-oxopentyl]amino]-3-methylbutyl]] displayed a half-inhibitory concentration (IC50) in experiment [1] of under 10 nM. In experiment [2], the EC50 was over 10000 nM.
Compound `CCCCCCCCCC(=O)N[C@@H](CNC(C)=O)C(=O)N[C@@H](CC(C)C)B(O)O` [E.5.1, Boronic acid, [(1R)-1-[[(2S)-3-(acetylamino)-2-[(decanoylamino)]-1-oxopropyl]amino]-3-methylbutyl]] registered an IC50 in experiment [1] of under 10 nM. Besides, the EC50 in experiment [2] was under 200 nM.
In turn, `CCCCCCCCCC(=O)N[C@@H](CC(N)=O)C(=O)N[C@@H](CC(C)C)B1O[C@@H]2C[C@@H]3C[C@@H](C3(C)C)[C@]2(C)O1` [D.8.19, Decanamide, N-[(1S)-1-[[[(1R)-1-[(3aS,4S,6S,7aR)-hexahydro-3a,5,5-trimethyl-4,6-methano-1,3,2-benzodioxaborol-2-yl]-3-methylbutyl]amino]carbonyl]-2-carbamoylethyl]] displayed an IC50 in experiment [1] of under 10 nM. Further, the EC50 in experiment [2] was under 200 nM.
For `CCCCc1ccc(C(=O)N[C@@H](CNC(=O)C2CC2)C(=O)N[C@@H](CC(C)C)B2O[C@@H]3C[C@@H]4C[C@@H](C4(C)C)[C@]3(C)O2)cc1` [D.24.11], the half-inhibitory concentration (IC50) in experiment [1] was under 10 nM. Further, the EC50 in experiment [2] is under 200 nM.
The compound `COCCOCC(=O)N[C@@H](CCCNC(=N)N[N+](=O)[O-])C(=O)N[C@@H](CC(C)C)B1O[C@@H]2C[C@@H]3C[C@@H](C3(C)C)[C@]2(C)O1` [D.1.6] registered an IC50 in experiment [1] of under 100 nM. Moreover, the EC50 in experiment [2] lay within 200 to 2000 nM.
Take `COCCOCCOCC(=O)NCC(=O)N[C@@H](CC(C)C)B1O[C@@H]2C[C@@H]3C[C@@H](C3(C)C)[C@]2(C)O1` [D.2.8, 2-[2-(2-methoxyethoxy)ethoxy]acetamide,N-[1-[[[(1R)-1-[(3aS,4S,6S,7aR)-hexahydro-3a,5,5-trimethyl-4,6-methano-1,3,2-benzodioxaborol-2-yl]-3-methylbutyl]amino]carbonyl]methyl]]: the half-inhibitory concentration (IC50) in experiment [1] is under 100 nM. The concentration giving a half-maximal response (EC50) in experiment [2] is under 200 nM.
On to `CCc1ccc(CCC(=O)N[C@@H](CCCNC(=N)N[N+](=O)[O-])C(=O)N[C@@H](CC(C)C)B2O[C@@H]3C[C@@H]4C[C@@H](C4(C)C)[C@]3(C)O2)cc1` [D.3.191, 3-[4-(Ethyl)phenyl]propanamide, N-[(1S)-1-[[[(1R)-1-[(3aS,4S,6S,7aR)-hexahydro-3a,5,5-trimethyl-4,6-methano-1,3,2-benzodioxaborol-2-yl]-3-methylbutyl]amino]carbonyl]-4-[[imino(nitroamino)methyl]amino]butyl]], for which the half-inhibitory concentration (IC50) in experiment [1] is under 10 nM. Further, the EC50 in experiment [2] was under 200 nM.
As to `CCCCc1ccc(C(=O)N[C@@H](CNC(=O)c2cccs2)C(=O)N[C@@H](CC(C)C)B2O[C@@H]3C[C@@H]4C[C@@H](C4(C)C)[C@]3(C)O2)cc1` [D.24.8, 4-butylbenzamide, N-[(1S)-1-[[[(1R)-1-[(3aS,4S,6S,7aR)-hexahydro-3a,5,5-trimethyl-4,6-methano-1,3,2-benzodioxaborol-2-yl]-3-methylbulyl]amino]carbonyl]-2-[(thien-2-ylcarbonyl)amino]ethyl]-], the IC50 in experiment [1] is under 10 nM. The 50% effective concentration (EC50) in experiment [2] was under 200 nM.
Turning to `CC(C)C[C@H](NC(=O)[C@H](CCCNC(=N)N[N+](=O)[O-])NC(=O)/C=C/c1ccc(Br)cc1)B(O)O` [D.7.32, Boronic acid, [(1R)-1-[[(2S)-5-[[imino(nitroamino)methyl]amino]-2-[((E)-3-(4-bromophenyl)prop-2-enoyl)amino]-1-oxopentyl]amino]-3-methylbutyl]], the IC50 in experiment [1] was under 10 nM. In experiment [2], the concentration giving a half-maximal response (EC50) is 2000 to 10000 nM.
As to `CC(C)C[C@H](NC(=O)[C@H](CCCNC(=N)N[N+](=O)[O-])NC(=O)CCCCCCCCC#N)B(O)O` [D.7.61, Boronic acid, [(1R)-1-[[(2S)-5-[[imino(nitroamino)methyl]amino]-2-[(9-cyanononanoyl)amino]-1-oxopentyl]amino]-3-methylbutyl]], the IC50 in experiment [1] is under 10 nM. Also, in experiment [2], the EC50 is over 10000 nM.
Turning to `CC(C)C[C@H](NC(=O)[C@@H](NS(=O)(=O)c1ccc2ccccc2c1)[C@@H](C)O)B1O[C@@H]2C[C@@H]3C[C@@H](C3(C)C)[C@]2(C)O1` [D.4.9, Naphthalene-2-sulfonamide, N-[(1S,2R)-1-[[[(1R)-1-[(3aS,4S,6S,7aR)-hexahydro-3a,5,5-trimethyl-4,6-methano-1,3,2-benzodioxaborol-2-yl]-3-methylbutyl]amino]carbonyl]-2-hydroxypropyl]], the IC50 in experiment [1] is under 100 nM. Further, the EC50 in experiment [2] was under 200 nM.
The matching figures for `COc1ccc2cc([C@H](C)C(=O)N[C@@H](CCCNC(=N)N[N+](=O)[O-])C(=O)N[C@@H](CC(C)C)B(O)O)ccc2c1` [D.7.33, Boronic acid, [(1R)-1-[[(2S)-5-[[imino(nitroamino)methyl]amino]-2-[[(2S)-2-(6-methoxynaphthalen-2-yl)-propanoyl]amino]-1-oxopentyl]amino]-3-methylbutyl]]: under 10 nM and 2000 to 10000 nM.
`CC(C)C[C@H](NC(=O)[C@@H](NC(=O)c1ccc(Oc2ccccc2)cc1)[C@@H](C)O)B(O)O` [E.3.7, Boronic acid, [(1R)-1-[[(2S,3R)-3-hydroxy-2-[(4-Phenoxybenzoyl)amino]-1-oxobutyl]amino]-3-methylbutyl]]: the IC50 in experiment [1] was under 10 nM. The concentration for a half-maximal effect (EC50) in experiment [2] is under 200 nM.
On the same counts, the results for `CC(C)CCCC(=O)N[C@@H](CCCNC(=N)N[N+](=O)[O-])C(=O)N[C@@H](CC(C)C)B1O[C@@H]2C[C@@H]3C[C@@H](C3(C)C)[C@]2(C)O1` [D.3.38] are under 10 nM and under 200 nM.
For `CCc1ccc(OCC(=O)N[C@@H](CCCNC(=N)N[N+](=O)[O-])C(=O)N[C@@H](CC(C)C)B(O)O)cc1` [E.2.55, Boronic acid, [(1R)-1-[[(2S)-5-[[imino(nitroamino)methyl]amino]-2-[[2-(4-ethylphenoxy)acetyl]amino]-1-oxopentyl]amino]-3-methylbutyl]], in experiment [1], the IC50 is under 10 nM. The concentration for a half-maximal effect (EC50) in experiment [2] fell in the range of 2000 to 10000 nM.
For the compound `CCOc1ccc(C(=O)N[C@@H](CCCNC(=N)N[N+](=O)[O-])C(=O)N[C@@H](CC(C)C)B2O[C@@H]3C[C@@H]4C[C@@H](C4(C)C)[C@]3(C)O2)cc1` [D.3.91], in experiment [1], the concentration for half-maximal inhibition (IC50) is under 10 nM. In addition, the EC50 in experiment [2] was under 200 nM.
The matching figures for `CCCCCCCCCC(=O)N[C@@H](CC(N)=O)C(=O)N[C@@H](CC(C)C)B(O)O` [E.1.27, Boronic acid, [(1R)-1-[[(2S)-3-carbamoyl-2-[(decanoyl)amino]-1-oxopropyl]amino]-3-methylbutyl]]: under 10 nM and under 200 nM.
The matching figures for `CC(C)C[C@H](NC(=O)[C@H](CCCNC(=N)N[N+](=O)[O-])NC(=O)Cc1ccc(Br)cc1)B(O)O` [E.2.38, Boronic acid, [(1R)-1-[[(2S)-5-[[imino(nitroamino)methyl]amino]-2-[[2-(4-bromophenyl)acetyl]amino]-1-oxopentyl]amino]-3-methylbutyl]]: under 10 nM and 2000 to 10000 nM.
`CC(C)C[C@H](NC(=O)[C@@H](NC(=O)CCCc1ccccc1)[C@@H](C)O)B(O)O` [E.1.23, Boronic acid, [(1R)-1-[[(2S,3R)-3-hydroxy-2-[(4-phenylbutanoyl)amino]-1-oxobutyl]amino]-3-methylbutyl]] gave an IC50 in experiment [1] of under 10 nM. For the same compound, in experiment [2], the half-maximal effective concentration (EC50) is under 200 nM.
In experiment [1], `CC(C)C[C@H](NC(=O)[C@H](CCCNC(=N)N[N+](=O)[O-])NC(=O)CCCCCCCCCN1C(=O)c2ccccc2C1=O)B(O)O` [E.1.20] showed an IC50 of under 10 nM. For the same compound, the EC50 in experiment [2] was under 200 nM.
Regarding `COc1ccc(CCCC(=O)N[C@@H](CCCNC(=N)N[N+](=O)[O-])C(=O)N[C@@H](CC(C)C)B2O[C@@H]3C[C@@H]4C[C@@H](C4(C)C)[C@]3(C)O2)cc1` [D.3.50], in experiment [1], the half-maximal inhibitory concentration (IC50) was under 10 nM. Further, the EC50 in experiment [2] was under 200 nM.
With `CC(C)C[C@H](NC(=O)[C@H](CCCNC(=N)N[N+](=O)[O-])NC(=O)CCCCC1CCCCC1)B(O)O` [D.7.24, Boronic acid, [(1R)-1-[[(2S)-5-[[imino(nitroamino)methyl]amino]-2-[(5-cyclohexylpentanoyl)amino]-1-oxopentyl]amino]-3-methylbutyl]], the IC50 in experiment [1] was under 10 nM. Also, the concentration for a half-maximal effect (EC50) in experiment [2] was 200 to 2000 nM.
Turning to `CCCCc1ccc(C(=O)N[C@@H](CCCNC(N)=O)C(=O)N[C@@H](CC(C)C)B(O)O)cc1` [E.1.30, Boronic acid, [(1R)-1-[[(2S)-2-[(4-butylbenzoyl)amino]-1-oxo-5-ureido-pentyl]amino]-3-methylbutyl]], in experiment [1], the IC50 is under 10 nM. In addition, the EC50 in experiment [2] lay in the range of 2000 to 10000 nM.

The values above are taken from US8546608B2, “Proteasome inhibitors and methods of using the same” (Cephalon, Inc., priority 2003, dated 2013).
